# Reference: US20260256792A1, “TREATMENT OF CHRONIC SPONTANEOUS URTICARIA BY ADMINISTERING (R)-2-[3-[4-AMINO-3-(2-FLUORO-4-PHENOXY-PHENYL)PYRAZOLO[3,4-D]PYRIMIDIN-1-YL]PIPERIDINE-1-CARBONYL]-4-METHYL-4-[4-(OXETAN-3-YL)PIPERAZIN-1-YL]PENT-2-ENENITRILE” (priority 2023, published 2026)
# Tested on: moderate-to-severe chronic spontaneous urticaria (CSU)
# Experiment: Phase 2 CSU study: hives severity score over 7 days (HSS7)
# Assay type: in vivo, human
# Set-up: key to HSS7 Change from baseline, Median / HSS7, Median / HSS7, Max / HSS7 Change from baseline, Q1 / HSS7 Change from baseline, Q3 / HSS7 Change from baseline, Max: 7-day sum of daily hive scores, each 0 = none to 3 = >50 hives
# Text: The study comprises a 12 week, randomized, double-blind, placebo-controlled, multi-center, dose-ranging efficacy and safety phase, followed by a 40 week open label extension (OLE) phase (see FIG. 1).
# The study consists of three phases and an optional OLE phase.
# The UAS is a validated PRO measure. The daily UAS is the sum of the daily Hive Severity Score (HSS, ranging from 0=None to 3=more than 50 hives) and the daily Itch Severity Score (ISS, ranging from 0=None to 3=intense), the 2 key urticaria signs and symptoms which are wheals and itch. The daily UAS scores range from 0 to 6 point/day. Daily UAS scores are summed over 7-day period to create the UAS7, ranging from 0 to 42, and are composed of the HSS7 and ISS7 components. […] Patients were to complete the UAS using the e-diary. The e-diary was to be used once daily on the same time of each day recording of participant's answers to the urticaria activity score over 7 days (UAS7) questionnaire. For participants who entered the OLE phase, their answers to the UAS7 questionnaire were also to be collected from Week 20 to Week24 and from Week 48 to Week 52.
# The following secondary endpoints were to be analyzed using the same approach as for the primary endpoint: • Change from baseline in UAS7 at Week 4 • Change from baseline in UAS7 at Week 12 (for US and US reference countries) • Change from baseline in ISS7 at Week 12 (except US and US reference countries) • Change from baseline in HSS7 at Week 12
# [1] = Week 1, 400 mg BID, Omalizumab-Naïve Population
# [2] = Week 1, 400 mg BID, Patients with Prior Omalizumab Use
# [3] = Week 1, 400 mg QPM, Omalizumab-Naïve Population
# [4] = Week 1, 400 mg QPM, Patients with Prior Omalizumab Use
# [5] = Week 1, 400 mg TID, Omalizumab-Naïve Population
# [6] = Week 1, 400 mg TID, Patients with Prior Omalizumab Use
# [7] = Week 2, 400 mg BID, Omalizumab-Naïve Population
# [8] = Week 2, 400 mg BID, Patients with Prior Omalizumab Use
# [9] = Week 2, 400 mg QPM, Omalizumab-Naïve Population
# [10] = Week 2, 400 mg QPM, Patients with Prior Omalizumab Use
# [11] = Week 2, 400 mg TID, Omalizumab-Naïve Population
# [12] = Week 2, 400 mg TID, Patients with Prior Omalizumab Use
# [13] = Week 3, 400 mg BID, Omalizumab-Naïve Population
# [14] = Week 3, 400 mg BID, Patients with Prior Omalizumab Use
# [15] = Week 3, 400 mg QPM, Omalizumab-Naïve Population
# [16] = Week 3, 400 mg QPM, Patients with Prior Omalizumab Use
# [17] = Week 3, 400 mg TID, Omalizumab-Naïve Population
# [18] = Week 3, 400 mg TID, Patients with Prior Omalizumab Use
smiles,measurement,setting,value
"CC(C)(C=C(C#N)C(=O)N1CCC[C@@H](n2nc(-c3ccc(Oc4ccccc4)cc3F)c3c(N)ncnc32)C1)N1CCN(C2COC2)CC1 [rilzabrutinib, (R)-2-[3-[4-amino-3-(2-fluoro-4-phenoxy-phenyl)pyrazolo[3,4-d]pyrimidin-1-yl]piperidine-1-carbonyl]-4-methyl-4-[4-(oxetan-3-yl)piperazin-1-yl]pent-2-enenitrile]","HSS7 change from baseline at Week 12, LS Mean Diff vs. placebo","Omalizumab-naïve Population, 400 mg TID, ANCOVA",−3.24
same,"HSS7, Mean (SD)",[1],9.26 (5.76)
same,"HSS7 Change from baseline, Mean (SD)",[1],−5.02 (4.53)
same,"HSS7 Change from baseline, Median",[1],−5.00
same,"HSS7 Percent change from baseline, Mean (SD)",[1],−36.53 (34.65) %
same,"HSS7 Percent change from baseline, Median",[1],−28.57%
same,"HSS7, Mean (SD)",[2],9.67 (6.41)
same,"HSS7 Change from baseline, Mean (SD)",[2],−5.50 (6.41)
same,"HSS7 Change from baseline, Median",[2],−3.00
same,"HSS7 Percent change from baseline, Mean (SD)",[2],−34.45 (41.48) %
same,"HSS7 Percent change from baseline, Median",[2],−17.65%
same,"HSS7, Mean (SD)",[3],10.73 (4.90)
same,"HSS7 Change from baseline, Mean (SD)",[3],−4.00 (4.92)
same,"HSS7 Change from baseline, Median",[3],−3.00
same,"HSS7 Percent change from baseline, Mean (SD)",[3],−25.31 (29.00) %
same,"HSS7 Percent change from baseline, Median",[3],−20.00%
same,"HSS7, Mean (SD)",[4],12.00 (NC)
same,"HSS7, Median",[4],12.00
same,"HSS7 Change from baseline, Mean (SD)",[4],−8.00 (NC)
same,"HSS7 Change from baseline, Median",[4],−8.00
same,"HSS7 Percent change from baseline, Mean (SD)",[4],−40.00 (NC) %
same,"HSS7 Percent change from baseline, Median",[4],−40.00%
same,"HSS7, Mean (SD)",[5],8.26 (4.91)
same,"HSS7, Median",[5],8.00
same,"HSS7 Change from baseline, Mean (SD)",[5],−5.40 (5.44)
same,"HSS7 Change from baseline, Median",[5],−5.00
same,"HSS7 Percent change from baseline, Mean (SD)",[5],−36.74 (35.15) %
same,"HSS7 Percent change from baseline, Median",[5],−33.33%
same,"HSS7, Mean (SD)",[6],4.83 (3.31)
same,"HSS7, Median",[6],4.50
same,"HSS7 Change from baseline, Mean (SD)",[6],−11.19 (4.74)
same,"HSS7 Percent change from baseline, Mean (SD)",[6],−70.33 (16.48) %
same,"HSS7 Percent change from baseline, Median",[6],−71.43%
same,"HSS7, Mean (SD)",[7],9.27 (5.49)
same,"HSS7, Median",[7],7.50
same,"HSS7 Change from baseline, Mean (SD)",[7],−5.10 (4.74)
same,"HSS7 Change from baseline, Median",[7],5.50
same,"HSS7 Percent change from baseline, Mean (SD)",[7],−35.29 (34.55) %
same,"HSS7 Percent change from baseline, Median",[7],−37.50%
same,"HSS7, Mean (SD)",[8],8.17 (7.08)
same,"HSS7, Median",[8],9.50
same,"HSS7 Change from baseline, Mean (SD)",[8],−7.00 (8.15)
same,"HSS7 Change from baseline, Median",[8],−4.50
same,"HSS7 Percent change from baseline, Mean (SD)",[8],−42.16 (46.38) %
same,"HSS7 Percent change from baseline, Median",[8],−26.47%
same,"HSS7, Mean (SD)",[9],10.90 (4.97)
same,"HSS7 Change from baseline, Mean (SD)",[9],−3.83 (4.91)
same,"HSS7 Change from baseline, Median",[9],3.00
same,"HSS7 Percent change from baseline, Mean (SD)",[9],−23.50 (30.60) %
same,"HSS7 Percent change from baseline, Median",[9],−21.43%
same,"HSS7, Mean (SD)",[10],13.00 (NC)
same,"HSS7, Median",[10],13.00
same,"HSS7 Change from baseline, Mean (SD)",[10],−7.00 (NC)
same,"HSS7 Change from baseline, Median",[10],−7.00
same,"HSS7 Percent change from baseline, Mean (SD)",[10],−35.00 (NC) %
same,"HSS7 Percent change from baseline, Median",[10],−35.00%
same,"HSS7, Mean (SD)",[11],7.25 (5.05)
same,"HSS7, Median",[11],7.00
same,"HSS7 Change from baseline, Mean (SD)",[11],−6.40 (5.94)
same,"HSS7 Change from baseline, Median",[11],−6.00
same,"HSS7 Percent change from baseline, Mean (SD)",[11],−44.30 (37.78) %
same,"HSS7 Percent change from baseline, Median",[11],−42.86%
same,"HSS7, Mean (SD)",[12],2.83 (3.31)
same,"HSS7, Median",[12],1.50
same,"HSS7 Change from baseline, Mean (SD)",[12],−13.19 (5.74)
same,"HSS7 Change from baseline, Median",[12],−14.00
same,"HSS7 Percent change from baseline, Mean (SD)",[12],-82.7%
same,"HSS7 Percent change from baseline, Median",[12],−81.38%
same,"HSS7, Mean (SD)",[13],8.55 (6.09)
same,"HSS7, Median",[13],7.00
same,"HSS7 Change from baseline, Mean (SD)",[13],−5.73 (5.31)
same,"HSS7 Change from baseline, Median",[13],−5.00
same,"HSS7 Percent change from baseline, Mean (SD)",[13],−40.65 (36.39) %
same,"HSS7 Percent change from baseline, Median",[13],−41.67%
same,"HSS7, Mean (SD)",[14],7.67 (7.00)
same,"HSS7, Median",[14],7.50
same,"HSS7 Change from baseline, Mean (SD)",[14],−7.50 (8.22)
same,"HSS7 Change from baseline, Median",[14],−6.00
same,"HSS7 Percent change from baseline, Mean (SD)",[14],−45.10 (46.71) %
same,"HSS7 Percent change from baseline, Median",[14],−35.29%
same,"HSS7, Mean (SD)",[15],10.41 (4.97)
same,"HSS7, Median",[15],9.00
same,"HSS7 Change from baseline, Mean (SD)",[15],−4.32 (4.60)
same,"HSS7 Change from baseline, Median",[15],−2.00
same,"HSS7 Percent change from baseline, Mean (SD)",[15],−27.98 (28.68) %
same,"HSS7 Percent change from baseline, Median",[15],−28.57%
same,"HSS7, Mean (SD)",[16],10.00 (NC)
same,"HSS7 Change from baseline, Mean (SD)",[16],−10.00 (NC)
same,"HSS7 Change from baseline, Median",[16],−10.00
same,"HSS7 Percent change from baseline, Mean (SD)",[16],−50.00 (NC) %
same,"HSS7 Percent change from baseline, Median",[16],−50.00%
same,"HSS7, Mean (SD)",[17],7.03 (4.82)
same,"HSS7, Median",[17],7.00
same,"HSS7 Change from baseline, Mean (SD)",[17],−6.63 (6.22)
same,"HSS7 Change from baseline, Median",[17],−7.00
same,"HSS7 Percent change from baseline, Mean (SD)",[17],−47.46 (36.18) %
same,"HSS7 Percent change from baseline, Median",[17],−48.81%
same,"HSS7, Mean (SD)",[18],3.39 (2.63)
same,"HSS7, Median",[18],2.67
same,"HSS7 Change from baseline, Mean (SD)",[18],−12.64 (6.13)
same,"HSS7 Change from baseline, Median",[18],−14.50
same,"HSS7 Percent change from baseline, Mean (SD)",[18],−76.71 (14.38) %
same,"HSS7 Percent change from baseline, Median",[18],−71.43%
